# Data taken from patent publication US20230056189A1, “COMPOSITIONS AND METHODS FOR TREATMENT OF PATHOLOGIC PAIN ASSOCIATED WITH MALIGNANT GROWTH DISORDER” (Duke University, priority 2020, published 2023).
# Legend:
# [1] = test system: intracellular chloride ([Cl-]i) of primary cortical neurons; experiment: Secondary screen: Clomeleon chloride imaging in cultured primary cortical neurons; assay type: cell-based, mouse; conditions: for Chloride [Cl—]i, value left of '=>': starting value before the arrow; for Chloride [Cl—]i, value right of '=>': value after the arrow (with compound)
# Experimental: (§1) The primary screen encompassed three levels of LUC measurements. The first level of screening yielded a total of 137 compounds with cut-off RLU>125% LUC activity. These 137 compounds were subject to second round of screening, which was carried out in duplicate independent assays to yield the top 103 compounds sorted for highest RLU. The 103 compounds were then subjected to a third round of screening carried out in duplicate independent assays to yield the top 40 compounds which were again ranked. The best 22 of these 40 compounds (ranked for highest RLU activity) were subjected to secondary screening: cultured neurons were treated with the 22 compounds; RT-qPCR and Clomeleon imaging methodologies (Yeo et al., 2009, J Neurosci 29: 14652-14662) were used to determine effects of compounds on Kcc2 mRNA expression and [Cl-]i, respectively. Each compound was ranked based on composite scores from primary and secondary screening.
# (§2) Chloride imaging of primary cultured cortical neurons was conducted as previously described (Kuner and Augustine, 2000, Neuron 27: 447-459; Liedtke et al., 2013, Small (Weinheim an der Bergstrasse, Germany) 9: 1066-1075; Yeo et al., 2009, J Neurosci 29: 14652-14662). A Clomeleon expression plasmid was transfected into primary cortical neurons by electroporation (Amaxa Nucleofector Device). Transfected neurons were verified by yellow fluorescent protein (YFP) fluorescence, and ratiometric images (excitation at λ=434 nm, dual emission at λ=485 and 535 nm; for resting chloride, six stable frames at […] were captured, which were averaged) were acquired using RATIOTOOL program. Calibration of Clomeleon signals (535 nm/485 nm emission ratio) was performed by using tributyltin-nigericin to establish a standard curve, which was then normalized for measured intraneuronal pH to take into account the pH sensitivity of Clomeleon.
# (§3) 1057 compounds were screened and contained in two NCI libraries: NCI compound libraries Natural Products II and Mechanistic Diversity Set II (FIG. 1, Table 2), related to inhibition of growth of malignantly transformed cells. […] Iterative screening followed by measurements of Kcc2 mRNA (RT-qPCR) and intracellular chloride ([Cl-]i) (clomeleon chloride indicator protein) led to decreasing numbers of re confirmed hits, which eventually identified four (4) “winner” compounds listed in the bottom panel of FIG. 1.
# Kcc2 gene expression = experiment: Composite ranking from primary and secondary screening; assay type: cell-based, mouse; conditions: for Total Score: sum of Luciferase, RT-qPCR and Clomeleon scores; for Top 2 Hits: winner = top 2 of each library by total score
# Experimental: as §1, §3
# Kcc2 promoter = experiment: Primary screen: luciferase (LUC) activity in primary cortical neurons from Kcc2-LUC transgenic mice; assay type: cell-based, mouse; conditions: rank score within compound library; compounds 100 nM for 48 h
# Experimental: Cell suspension was plated at a density of 1×10^6 cells/ml onto 24-well tissue-culture dishes coated with poly-d-lysine.
# LUC activity was then determined for each compound. Culture supernatant was removed and cells were lysed with 150 μl lysis buffer (Targeting Systems CA, USA cat. CLR1). LUC activity was measured with a RedLuciferase Assay kit (Targeting Systems cat. FLAR) according to the manufacturer's instructions. A Veritas microplate luminometer was used to measure luminescence; for each treatment triplicates of 40 μl cell lysates (from each 24-well tissue-culture dish) were used and 25 μl substrate was injected per well. […] Relative Light units (RLU) for each treatment was derived from Light Units (compound treatment)/vehicle treatment (0.5% DMSO).
# The primary screen encompassed three levels of LUC measurements. […] Each compound was ranked based on composite scores from primary and secondary screening.
# Kcc2 mRNA = experiment: Secondary screen: Kcc2 RT-qPCR in cultured primary cortical neurons; assay type: cell-based, mouse; conditions: rank score within compound library
# Experimental: as §1, with “Each compound was ranked based on composite scores from primary and secondary screening.” left out
# Total RNA was isolated from cultured cell samples using Directzol RNA miniprep kit (ZymoResearch). […] Gene expression was assessed by quantitative real-time PCR using 2×SYBR Green Master Mix (Qiagen) and a three-step cycling protocol (anneal at 60° C./elongate at 72° C., denature at 95° C.). […] The amount of target messenger RNA (mRNA) in the experimental group relative to that in the control was determined from the resulting fluorescence and threshold values (Ct) using the […] method. […] was used as a housekeeping gene. […]
# neuronal [Cl-]i = experiment: Clomeleon [Cl-]i measurement in rat primary cortical neurons; assay type: cell-based; conditions: VU0240551 2.5 μM, both vehicle-treated and KP-treated rat neurons
# Experimental: as §2
# Results represent the average mRNA expression of multiple independent neuronal cultures [n=12 (control), n=4 (0.1 μM KP), n=3 (0.2 μM KP), n=10 (0.5 μM KP). *p<0.05, **p<0.01, ****p<0.0001, one-way ANOVA].
# It is shown that KP enhanced Kcc2 gene expression and KCC2 chloride extrusion function with rather rapid kinetics within 3 h time frame.
# A375 = experiment: MTT cell viability assay; assay type: cell-based; conditions: KP 100 nM and/or paclitaxel 1 nM or 10 nM, 72 hours
# Experimental: (§4) Two commonly used breast cancer cell lines (MCF7 and MDA MB-231) and one melanoma cell line (A375) were used in this study. 100 nM Kenpaullone (KP) and/or 1 nM or 10 nM paclitaxel (Taxol) were administered to the cell lines to test their impact on cell viability. Each bar represents an average of 6 experiments, and error bars represent SEM. Cell line maintenance and MTT cell viability assay were done according to Xiao et al. (2018, BMC Cancer, 18(1): 675). Cell viability was assessed after 72 hours.
# MCF7 = experiment: MTT cell viability assay; assay type: cell-based; conditions: KP 100 nM and/or paclitaxel 1 nM or 10 nM, 72 hours
# Experimental: as §4
# MDA MB-231 = experiment: MTT cell viability assay; assay type: cell-based; conditions: KP 100 nM and/or paclitaxel 1 nM or 10 nM, 72 hours
# Experimental: as §4
Compound,"Chloride [Cl—]i, value left of '=>' [1] [mM]","Chloride [Cl—]i, value right of '=>' [1] [mM]",Total Score (Kcc2 gene expression),further results
"Cc1cc(-c2nc3ccccc3s2)ccc1N [4-(1,3-Benzothiazol-2-yl)-2-methylaniline]",82,38,13,
CC(O)CCC(=O)c1ccoc1 (stereo not shown) [4-Ipomeanol],74,32,8,
N=C1N=CN=C2C([C@@H]3O[C@H](CO)[C@@H](O)[C@H]3O)=CN=C12 [9-Deazaadenosine],82,40,11,
"CC(=O)Nc1ccc(-c2nc3ccccc3s2)cc1 [NSC33006, N-[4-(1,3-benzothiazol-2-yl)phenyl]acetamide]",74,28,5,Top 2 Hits (Kcc2 gene expression): winner
"Cc1ccc(NC(=O)c2cccc([N+](=O)[O-])c2O)c(C)c1 [NSC79456, n-(2,4-Dimethylphenyl)-2-hydroxy-3-nitrobenzamide]",74,24,5,Top 2 Hits (Kcc2 gene expression): winner
"CC(=O)C1CCCC(=O)/C=C/C(=O)O1 (stereo not shown) [NSC180515, 2-Acetyl-2,3,4,5-tetrahydrooxonine-6,9-dione]",68,22,6,Luciferase Score (triplicates) (Kcc2 promoter): 4; RT-qPCR Score (triplicates) (Kcc2 mRNA): 1; Chloride reduction (%) [1]: 32%; Clomeleon Score (duplicates) ([1]; rank score within compound library): 1; Top 2 Hits (Kcc2 gene expression): winner
Cc1csc(NC(=O)CSc2ccc(-c3ccccc3)nn2)n1 [VU0240551],,,,[Cl-]i with add-on KCC2-transport blocker (neuronal [Cl-]i): ≥ 120 mM
COc1ccc(C[C@H]2NC[C@H](O)[C@H]2OC(C)=O)cc1 [anisomycine],75,43,,
C[C@@]12C(=O)OC(=O)[C@]1(C)[C@H]1CC[C@@H]2O1 [cantharidine],68,33,,
CC1(C)CCC[C@]2(C)C3=C(CC[C@@H]12)C(=O)OC3 [confertifoline],75,42,,
CC(=O)O[C@H]1C(=O)[C@@]2(C)[C@H]([C@H](OC(=O)c3ccccc3)[C@]3(O)C[C@H](OC(=O)[C@H](O)[C@@H](NC(=O)c4ccccc4)c4ccccc4)C(C)=C1C3(C)C)[C@]1(OC(C)=O)CO[C@@H]1C[C@@H]2O [paclitaxel],,,,cell viability (MTT) (A375): sensitive; cell viability (MTT) (MCF7): sensitive; cell viability (MTT) (MDA MB-231): sensitive
COc1cc2c3c(c4ccc(OC)c(OC)c4c2cc1OC)CN1CCC[C@H]1C3 [tylocrebrine],75,39,,
